Assay results published in US20190307749A1, “Mitochondria-Division Inhibitor 1 Protects Against Amyloid-B Induced Mitochondrial Fragmentation and Synaptic Damage in Alzheimer's Disease” (Texas Tech University System, priority 2018, published 2019).
Entries after “also recorded” stand apart in the source; their conditions may differ. Marks after values point to notes of the source that are not given here.

Legend:
[1] = tested on: mouse neuroblastoma (N2a) cells; assay: Quantitative real-time RT-PCR: mRNA expression of mitochondrial dynamics, biogenesis and synaptic genes; type: cell-based; settings: N2a cells
Protocol: (§1) Tissue culture: The N2a cells were grown for 3 days in a serum-free medium (1:1 mixture of DMEM and OptiMEM, plus penicillin and streptomycin [Invitrogen, Carlsbad, Calif., USA]) until the cells developed neuronal processes.
Quantitative real-time RT-PCR: Using the reagent TriZol (Invitrogen), total RNA was isolated from cell pellets from the 5 N2a cell groups (FIG. 1). Using primer express software (Applied Biosystems, Carlsbad, Calif., USA), the inventors designed the oligonucleotide primers for the housekeeping genes 3-actin, GAPDH, mitochondrial structural genes, fission genes (Drp1, Fis1), fusion genes (MFN1, MFN2, Opa1), biogenesis genes (PGC1c, Nrf1, Nrf2, TFAM), and synaptic genes (synaptophysin and PSD95) (see Table 1 for primer sequences and amplicon sizes). Using SYBR-Green chemistry-based quantitative real-time RT-PCR, mRNA expressions of the above-mentioned genes were measured, as described by Manczak and Reddy.
The mRNA transcript level was normalized against β-actin and the GAPDH at each dilution. The standard curve was the normalized mRNA transcript level, plotted against the log-value of the input cDNA concentration at each dilution. To compare β-actin, GAPDH, and relative quantification was performed according to the (CT) method (Applied Biosystems). […] The ΔCT-value was obtained by subtracting the average β-actin CT value from the average CT-value of the synaptic mitochondrial ETC genes and the mitochondrial structural genes. The ΔCT of untreated cells was used as the calibrator. The fold change was calculated according to the formula 2^-(Δ ΔCT), where ΔΔCT is the difference between ΔCT and the ΔCT calibrator value. To determine the statistical significance of mRNA expression, the CT value differences between the untreated cells and other experimental groups of cells were used in relation to β-actin normalization. Statistical significance was calculated, using one-way ANOVA.

N2a cells [2] = assay: Soluble Aβ42 levels by sandwich ELISA; type: cell-based, mouse; settings: vs N2a cells treated only with Aβ42
Protocol: as §1
Briefly, protein lysates from untreated control N2a cells and lysates from 4 treatment groups were homogenized in a Tris-buffered saline (pH 8.0) containing protease inhibitors ([…] pepstatin A, aprotinin, phophsoramidon, and leupeptin; 0.5 mM phenylmethanesulfonyl fluoride and 1 mM ethyleneglycol-bis(flaminoethyl ether)-NN tetraacetic acid). Samples were sonicated briefly and centrifuged at 10,000 g for 20 min at 4° C. The soluble fraction was used to determine the soluble Aβ by ELISA. For each sample, Aβ1-40 and Aβ1-42 were measured with commercial colorimetric ELISA kits (Biosource International, Camarillo, Calif., USA) that were specific for each species. A 96-well plate reader was used, following the manufacturer's instructions. Each sample was run in duplicate. Protein concentrations of the homogenates were determined following the […], and Aβ was expressed as pg Aβ/mg protein.

N2a cells [3] = assay: H2O2 production (Amplex Red H2O2 assay); type: cell-based, mouse
Protocol: as §1
Mitochondrial functional assays. H2O2 production: Using an Amplex® Red H2O2 assay kit (Molecular Probes, Eugene, Oreg., USA), H2O2 production was measured using cell pellets, as described in Manczak and Reddy. Briefly, H2O2 production was measured in the protein lysates prepared from cell pellets of control untreated N2a cells and 4 treatment groups (FIG. 1). A BCA protein assay kit (Pierce Biotechnology) was used to estimate protein concentration. The reaction mixture contained mitochondrial proteins (μg/μl), Amplex Red reagents (50 μM), horseradish peroxidase (0.1 U/ml), and a reaction buffer (1×). The mixture was incubated at room temperature for 30 minutes, followed by spectrophotometer readings of fluorescence (570 nm). Finally, H2O2 production was determined, using a standard curve equation expressed in nmol/μg mitochondrial protein.

[4] = Aβ42 6 hrs then Mdivi1 24 hrs (Aβ42+Mdivi1), vs Aβ42 treated cells
[5] = Aβ42 6 hrs then Mdivi1 24 hrs (Aβ42+Mdivi1), vs untreated N2a cells
[6] = Mdivi1 24 hrs or Aβ42 20 μM 6 hrs alone, vs untreated N2a cells
[7] = Mdivi1 24 hrs then Aβ42 6 hrs (Mdivi1+Aβ42), vs Aβ42 treated cells
[8] = Mdivi1 24 hrs then Aβ42 6 hrs (Mdivi1+Aβ42), vs untreated N2a cells

With COc1cc(-n2c(S)nc3ccccc3c2=O)c(Cl)cc1Cl [Mdivi1, 3-(2,4-Dichloro-5-methoxyphenyl)-2,3-dihydro-2-thioxo-4(1H)-quinazolinone] the “Drp1 mRNA expression level, lower by fold” value [1, 4] was 1.5 fold, the “Drp1 mRNA fold change” value [1, 4] was −1.5* fold and the “Fis1 mRNA expression level, lower by fold” value [1, 4] was 1.7 fold. For the same molecule, the “Fis1 mRNA fold change” value [1, 4] was −1.7* fold, the “Mfn1 mRNA fold change” value [1, 4] was 1.6 fold and the “Mfn2 mRNA fold change” value [1, 4] was 1.6 fold. The “Nrf1 mRNA fold change” value [1, 4] was 2.0 fold, the “OPA1 mRNA fold change” value [1, 4] was 1.3 fold and the “PGC1α mRNA fold change” value [1, 4] was 8.1 fold. The “Synaptophysin mRNA fold change” value [1, 4] was 1.5 fold, the “CypD mRNA level” value [1, 5] was “unchanged” and the “PGC1α mRNA fold change” value [1, 5] was 1.4 fold. For the same molecule, the “PSD95 mRNA fold change” value [1, 5] was 4.8 fold, the “Synaptophysin mRNA fold change” value [1, 5] was 1.2 fold and the “TFAM mRNA fold change” value [1, 5] was 1.2 fold. For the same molecule, the “Drp1 mRNA fold change” value [1, 6] was −1.5* fold, the “Drp1 mRNA level, fold decrease” value [1, 6] was 1.5 fold and the “Fis1 mRNA fold change” value [1, 6] was −1.3 fold. The “Fis1 mRNA level, fold decrease” value [1, 6] was 1.3 fold, the “Mfn1 mRNA fold change” value [1, 6] was 1.3 fold and the “Mfn2 mRNA fold change” value [1, 6] was 1.2 fold. For the same molecule, the “Nrf1 mRNA fold change” value [1, 6] was 2.2 fold, the “Nrf2 mRNA fold change” value [1, 6] was 1.6 fold and the “OPA1 mRNA fold change” value [1, 6] was 1.2 fold. For the same molecule, the “PGC1α mRNA fold change” value [1, 6] was 2.2 fold, the “PSD95 mRNA fold change” value [1, 6] was 5.1 fold and the “Synaptophysin mRNA fold change” value [1, 6] was 1.3 fold. The “TFAM mRNA fold change” value [1, 6] was 1.5 fold, the “Drp1 mRNA expression level, lower by fold” value [1, 7] was 1.5 fold and the “Drp1 mRNA fold change” value [1, 7] was −1.5* fold. The “Fis1 mRNA expression level, lower by fold” value [1, 7] was 1.6 fold, the “Fis1 mRNA fold change” value [1, 7] was −1.6* fold and the “Mfn2 mRNA fold change” value [1, 7] was 2.2 fold. The “Nrf1 mRNA fold change” value [1, 7] was 2.7 fold, the “Nrf2 mRNA fold change” value [1, 7] was 2.7 fold and the “OPA1 mRNA fold change” value [1, 7] was 2.3 fold. For the same molecule, the “PGC1α mRNA fold change” value [1, 7] was 6.5 fold, the “PSD95 mRNA fold change” value [1, 7] was 3.8 fold and the “Synaptophysin mRNA fold change” value [1, 7] was 2.2 fold. For the same molecule, the “TFAM mRNA fold change” value [1, 7] was 3.2 fold, the “Drp1 mRNA fold change” value [1, 8] was −1.1 fold and the “Fis1 mRNA fold change” value [1, 8] was −1.2 fold. For the same molecule, the “Mfn1 mRNA fold change” value [1, 8] was 2.1 fold, the “Mfn2 mRNA fold change” value [1, 8] was 1.7 fold and the “Nrf1 mRNA fold change” value [1, 8] was 1.3 fold. The “Nrf2 mRNA fold change” value [1, 8] was 1.3 fold, the “OPA1 mRNA fold change” value [1, 8] was 1.9 fold and the “PGC1α mRNA fold change” value [1, 8] was 1.1 fold. For the same molecule, the “PSD95 mRNA fold change” value [1, 8] was 1.5 fold, the “Synaptophysin mRNA fold change” value [1, 8] was 1.7 fold and the “TFAM mRNA fold change” value [1, 8] was 1.3 fold. For the same molecule, the Aβ42 levels (N2a cells [2]; Aβ42 6 hrs then Mdivi1 24 hrs (Aβ42+Mdivi1, curative)) was “Significantly reduced; also recorded: significantly lower”, the Aβ42 levels (N2a cells [2]; Mdivi1 24 hrs then Aβ42 6 hrs (Mdivi1+Aβ42, preventive)) was “Significantly reduced; also recorded: significantly lower” and the H2O2 levels (N2a cells [3]; Aβ42 6 hrs then Mdivi1 24 hrs (Aβ42+Mdivi1), vs N2a+Aβ42 cells) was “significantly lower”. The H2O2 levels (N2a cells [3]; [5]) was “unchanged”, the H2O2 levels (N2a cells [3]; Mdivi1 24 hrs then Aβ42 6 hrs (Mdivi1+Aβ42), vs N2a+Aβ42 cells) was “significantly lower” and the H2O2 levels (N2a cells [3]; [8]) was “unchanged”.
